Data reported in patent publication US20260158046A1, “TREATMENT OF NEURODEGENERATIVE DISORDERS WITH DOXYCYCLINE ALONE OR IN COMBINATION WITH LEVODOPA” (Biohaven Therapeutics Ltd., priority 2023, published 2026).

Legend:
Assay type in all cases: in vivo, human
[1] = Case report, Patient A: tolerability of doxycycline; details: after two additional months on doxycycline
Text: (§1) Patient A is a person diagnosed with PD approximately one and a half years earlier and treated with levodopa. […] The patient also experienced intermittent irritable bowel disorder symptoms.

seborrheic dermatitis = assay: Case report, Patient A: seborrheic dermatitis under doxycycline
Text: as §1

PD tremor = assay: Case report, Patient A: PD tremor under doxycycline added to levodopa; details: prior to initiation of doxycycline
Text: as §1

| SMILES | adverse event leading to stop of treatment [1] | time to resolution of seborrheic dermatitis (seborrheic dermatitis; PD patient on levodopa, doxycycline 100 mg tablet once a day, first course) | time to recurrence of seborrheic dermatitis after discontinuation (seborrheic dermatitis; doxycycline discontinued after approximately 8 weeks (first de-challenge)) | interval between required levodopa dose increases (worsening PD, most notably tremor) (PD tremor) |
| --- | --- | --- | --- | --- |
| C[C@H]1c2cccc(O)c2C(=O)C2=C(O)[C@]3(O)C(=O)C(C(N)=O)=C(O)[C@@H](N(C)C)[C@@H]3[C@@H](O)[C@@H]21 [doxycycline, Doxycycline] | nausea | ≤ 3 weeks | ≤ 2 weeks | – |
| N[C@@H](Cc1ccc(O)c(O)c1)C(=O)O [levodopa, Levodopa] | – | – | – | ~3 months |
